Test results from ChEMBL document CHEMBL5550108, “Exploiting high-energy hydration sites for the discovery of potent peptide aldehyde inhibitors of the SARS-CoV-2 main protease with cellular antiviral activity” (Bioorg Med Chem, 2024).

test system: SARS-CoV-2; assay: Antiviral activity against SARS-CoV-2 USA-WA1/2020 infected in human HeLa cells harbouring ACE2 assessed as reduction in cytopathic effect pretreated with cells followed by viral infection and measured after 24 hrs by fluorescence based analysis; assay type: functional, organism-based; conditions: Severe acute respiratory syndrome coronavirus 2, USA-WA1/2020, HeLa

`CC1(C)C[C@@H](C(=O)N[C@H](C=O)C[C@@H]2CCNC2=O)N(C(=O)c2cc3ccccc3[nH]2)C1` and `O=C[C@H](C[C@@H]1CCNC1=O)NC(=O)[C@@H]1CC2(CC2)CN1C(=O)c1cc2ccccc2[nH]1` are within 1.5-fold of each other in EC50: 7100 nM for the first, 9200 nM for the second.

`COc1cccc2cc(C(=O)N3C[C@H]4[C@@H]([C@H]3C(=O)N[C@H](C=O)C[C@@H]3CCNC3=O)C4(C)C)[nH]c12` and `Cc1cccc2cc(C(=O)N3C[C@H]4[C@@H]([C@H]3C(=O)N[C@H](C=O)C[C@@H]3CCNC3=O)C4(C)C)[nH]c12` are the same in EC50: 1300 nM for the first, 1300 nM for the second.

Compared with `COc1cccc2[nH]c(C(=O)N3C[C@H]4[C@@H]([C@H]3C(=O)N[C@H](C=O)C[C@@H]3CCNC3=O)C4(C)C)cc12`, `CC(C)Oc1cccc2[nH]c(C(=O)N3C[C@H]4[C@@H]([C@H]3C(=O)N[C@H](C=O)C[C@@H]3CCNC3=O)C4(C)C)cc12` is 35-fold lower in EC50: 8800 nM for the first, 250 nM for the second.

First: CC1CCC(CC(=O)N2C[C@H]3[C@@H]([C@H]2C(=O)N[C@H](C=O)C[C@@H]2CCNC2=O)C3(C)C)CC1 (some centres undefined)
Second: CC1(C)[C@@H]2[C@@H](C(=O)N[C@H](C=O)C[C@@H]3CCNC3=O)N(C(=O)CC3CCCCC3)C[C@@H]21
The EC50 of the first is 2.1-fold lower: 160 nM for the first, 340 nM for the second.

Compared with `CC1(C)[C@@H]2[C@@H](C(=O)N[C@H](C=O)C[C@@H]3CCNC3=O)N(C(=O)C3(c4cccc(Cl)c4)CC3)C[C@@H]21`, `CC1(C)[C@@H]2[C@@H](C(=O)N[C@H](C=O)C[C@@H]3CCNC3=O)N(C(=O)C3(c4ccccc4)CC3)C[C@@H]21` is 2.2-fold higher in EC50: 90 nM for the first, 196 nM for the second. The first is the more potent here.

First: C[C@@H](C(=O)N1C[C@H]2[C@@H]([C@H]1C(=O)N[C@H](C=O)C[C@@H]1CCNC1=O)C2(C)C)c1ccccc1
Second: Cc1cccc([C@@H](C)C(=O)N2C[C@H]3[C@@H]([C@H]2C(=O)N[C@H](C=O)C[C@@H]2CCNC2=O)C3(C)C)c1
The EC50 of the first is 1.8-fold higher: 300 nM for the first, 170 nM for the second. The second is the more potent here.

First: CC1(C)[C@@H]2[C@@H](C(=O)N[C@H](C=O)C[C@@H]3CCNC3=O)N(C(=O)c3cc4ccc(F)cc4[nH]3)C[C@@H]21
Second: CC1(C)[C@@H]2[C@@H](C(=O)N[C@H](C=O)C[C@@H]3CCNC3=O)N(C(=O)c3cc4cc(F)ccc4[nH]3)C[C@@H]21
The EC50 of the first is 2.2-fold lower: 1800 nM for the first, 4000 nM for the second. The first is the more potent here.

Going from `CC1(C)[C@@H]2[C@@H](C(=O)N[C@H](C=O)C[C@@H]3CCNC3=O)N(C(=O)Cc3ccccc3)C[C@@H]21` to `CC(C)(C(=O)N1C[C@H]2[C@@H]([C@H]1C(=O)N[C@H](C=O)C[C@@H]1CCNC1=O)C2(C)C)c1ccccc1`, the EC50 falls from 530 nM to 343 nM (1.5-fold).

First: CCc1cccc2[nH]c(C(=O)N3C[C@H]4[C@@H]([C@H]3C(=O)N[C@H](C=O)C[C@@H]3CCNC3=O)C4(C)C)cc12
Second: Cc1cccc2[nH]c(C(=O)N3C[C@H]4[C@@H]([C@H]3C(=O)N[C@H](C=O)C[C@@H]3CCNC3=O)C4(C)C)cc12
The EC50 of the first is 2.2-fold lower: 630 nM for the first, 1400 nM for the second.

First: CC1(C)[C@@H]2[C@@H](C(=O)N[C@H](C=O)C[C@@H]3CCNC3=O)N(C(=O)c3cc4cccc(F)c4[nH]3)C[C@@H]21
Second: CC1(C)[C@@H]2[C@@H](C(=O)N[C@H](C=O)C[C@@H]3CCNC3=O)N(C(=O)c3cc4cccc(Cl)c4[nH]3)C[C@@H]21
The EC50 of the first is 2.4-fold higher: 720 nM for the first, 300 nM for the second. The second is the more potent here.

Going from `CC1(C)[C@@H]2[C@@H](C(=O)N[C@H](C=O)C[C@@H]3CCNC3=O)N(C(=O)c3cc4cccc(C#N)c4[nH]3)C[C@@H]21` to `CC1(C)[C@@H]2[C@@H](C(=O)N[C@H](C=O)C[C@@H]3CCNC3=O)N(C(=O)c3cc4c(C#N)cccc4[nH]3)C[C@@H]21`, the EC50 rises from 410 nM to 8500 nM (21-fold). The first is the more potent here.

Going from `CC1(C)[C@@H]2[C@@H](C(=O)N[C@H](C=O)C[C@@H]3CCNC3=O)N(C(=O)c3cc4cccc(C(F)(F)F)c4[nH]3)C[C@@H]21` to `CC1(C)[C@@H]2[C@@H](C(=O)N[C@H](C=O)C[C@@H]3CCNC3=O)N(C(=O)c3cc4ccccc4[nH]3)C[C@@H]21`, the EC50 rises from 240 nM to 2500 nM (10-fold).

Going from `C[C@H](C(=O)N1C[C@H]2[C@@H]([C@H]1C(=O)N[C@H](C=O)C[C@@H]1CCNC1=O)C2(C)C)C1CCCCC1` to `C[C@@H](C(=O)N1C[C@H]2[C@@H]([C@H]1C(=O)N[C@H](C=O)C[C@@H]1CCNC1=O)C2(C)C)C1CCCCC1`, the EC50 falls from 470 nM to 300 nM (1.6-fold).

Compared with `CC1(C)[C@@H]2[C@@H](C(=O)N[C@H](C=O)C[C@@H]3CCNC3=O)N(C(=O)c3cc4c(F)cccc4[nH]3)C[C@@H]21`, `CC(C)c1cccc2[nH]c(C(=O)N3C[C@H]4[C@@H]([C@H]3C(=O)N[C@H](C=O)C[C@@H]3CCNC3=O)C4(C)C)cc12` is 4.9-fold lower in EC50: 1800 nM for the first, 370 nM for the second. The second is the more potent here.

Going from `CC(C)c1ccc(F)c2[nH]c(C(=O)N3C[C@H]4[C@@H]([C@H]3C(=O)N[C@H](C=O)C[C@@H]3CCNC3=O)C4(C)C)cc12` to `CC(C)c1ccc(Cl)c2[nH]c(C(=O)N3C[C@H]4[C@@H]([C@H]3C(=O)N[C@H](C=O)C[C@@H]3CCNC3=O)C4(C)C)cc12`, the EC50 rises from 120 nM to 270 nM (2.2-fold).

Compared with `O=C[C@H](C[C@@H]1CCNC1=O)NC(=O)[C@@H]1C[C@@H](C2CCCCC2)CN1C(=O)c1cc2ccccc2[nH]1`, `CC1(C)[C@@H]2[C@@H](C(=O)N[C@H](C=O)C[C@@H]3CCNC3=O)N(C(=O)C3(c4ccccc4)CCCC3)C[C@@H]21` is 7-fold lower in EC50: 770 nM for the first, 110 nM for the second.

First: CC(C)(C)CCC(=O)N1C[C@H]2[C@@H]([C@H]1C(=O)N[C@H](C=O)C[C@@H]1CCNC1=O)C2(C)C
Second: CC(C)(C)CC(=O)N1C[C@H]2[C@@H]([C@H]1C(=O)N[C@H](C=O)C[C@@H]1CCNC1=O)C2(C)C
The EC50 of the first is 1.6-fold lower: 690 nM for the first, 1100 nM for the second.

In the case of `CC1(C)[C@@H]2[C@@H](C(=O)N[C@H](C=O)C[C@@H]3CCNC3=O)N(C(=O)C3(O)CCCCC3)C[C@@H]21`, the EC50 is reported as 2200 nM.

test system: SARS-CoV-2; assay: Selectivity ratio of EC50 for antiviral activity against SARS-CoV-2 USA-WA1/2020 infected in human HeLa cells harbouring ACE2 to IC50 for inhibition of C terminal 6 his tagged SARS-CoV-2 main protease expressed in Escherichia coli BL-21-Gold(DE3) cells; assay type: functional; conditions: not given

`CC1(C)C[C@@H](C(=O)N[C@H](C=O)C[C@@H]2CCNC2=O)N(C(=O)c2cc3ccccc3[nH]2)C1` and `O=C[C@H](C[C@@H]1CCNC1=O)NC(=O)[C@@H]1CC2(CC2)CN1C(=O)c1cc2ccccc2[nH]1` are the same in Selectivity ratio: 30 for the first, 30 for the second.

`CC1(C)[C@@H]2[C@@H](C(=O)N[C@H](C=O)C[C@@H]3CCNC3=O)N(C(=O)c3cc4ccccc4[nH]3)C[C@@H]21` and `O=C[C@H](C[C@@H]1CCNC1=O)NC(=O)[C@@H]1C[C@@H](C2CCCCC2)CN1C(=O)c1cc2ccccc2[nH]1` are the same in Selectivity ratio: 30 for the first, 30 for the second.
